Laboratory results from PMC7266154 (RNA, 2020).

Tested on: protein synthesis in E. coli S30 extract
Format: biochemical, Escherichia coli
Settings: read-out: IC50, inhibition of firefly luciferase synthesis, 37°C, 30 min, luciferase activity, three independent measurements

IC50	Structure (SMILES)
190 ± 20 nM	CC[C@H]1OC(=O)[C@H](C)[C@@H](O[C@H]2C[C@@](C)(OC)[C@@H](O)[C@H](C)O2)[C@H](C)[C@@H](O[C@@H]2O[C@H](C)C[C@H](N(C)C)[C@H]2O)[C@](C)(O)C[C@@H](C)[C@@H]2N[C@@H](COCCOC)O[C@H]([C@H]2C)[C@]1(C)O [DIR, dirithromycin]
320 ± 20 nM	CC[C@H]1OC(=O)[C@H](C)[C@@H](O[C@H]2C[C@@](C)(OC)[C@@H](O)[C@H](C)O2)[C@H](C)[C@@H](O[C@@H]2O[C@H](C)C[C@H](N(C)C)[C@H]2O)[C@](C)(O)C[C@@H](C)C(=O)[C@H](C)[C@@H](O)[C@]1(C)O [ERY, erythromycin]
